# Results from patent US7115797B2, “Mice lacking inward-rectifying potassium channel Kir6.1” (JCR Pharmaceuticals Co., Ltd., priority 2002, dated 2006).
# How the values were obtained:
# ventricular cells [1] = assay: Whole-cell membrane currents of isolated ventricular cells (patch-clamp, ramp-pulse protocol); type: cell-based, mouse; details: ventricular cells of both Kir6.1+/+ and Kir6.1-/- mice
# Method: (§1) Kir6.1 is expressed most abundantly in the heart (24), and is present in cardiomyocytes (25). Therefore, electrophysiological properties of ventricular myocytes isolated from Kir6.1^+/+ and Kir6.1^−/− mice were compared. The quasi-steady-state membrane currents were recorded using a ramp-pulse protocol.
# (§2) Briefly, single ventricular cells of the heart were enzymatically isolated and whole-cell membrane currents were recorded by the patch-clamp method (13). The pipette solution was composed of 20 mM KCl, 1 mM MgCl2, 1 mM phosphocreatine-K2, 110 mM K1-aspartate, 1 mM K2-ATP, 1.0 mM EGTA, 5 mM HEPES (pCa 8.0, pH 7.4). The external solution used was a HEPES-Tyrode solution containing 143 mM NaCl, 5.4 mM KCl, 1.8 mM CaCl2, 0.5 mM MgCl2, 0.33 mM NaHPO4, […], 5 mM HEPES (pH 7.4). Voltage- and current-clamp experiments in heart cells were performed at 36.0° C.
# ventricular cells [2] = assay: Action potential recording in isolated ventricular cells (current-clamp); type: cell-based, mouse; details: for APD at 90% repolarization level (APD90): mean±SE
# Method: as §1, §2
# [3] = tested on: aorta smooth muscle cells; assay: Whole-cell membrane currents of aorta smooth muscle cells; type: cell-based, mouse; details: for density of pinacidil-induced, glibenclamide-sensitive inward K+ current: held at -40 mV, high K+ (140 mM) solution, mean±SE
# Method: Single smooth muscle cells of thoracic aorta were enzymatically isolated and electrophysiological studies were conducted in the same manner as performed in the cardiomyocytes.
# The compositions of the extracellular high K^+ solution and the pipette solution used in this smooth muscle cell experiment were as follows. The external high-K^+ solution: 2.9 mM NaCl, 140 mM KCl, 2.2 mM CaCl2, 1.2 mM MgCl2, 14 mM glucose and 10 mM HEPES-KOH buffer (pH 7.4). The pipette solution: 140 mM KCl, 4 mM MgCl2, 1 mM ATP-K2, 10 mM EGTA and 10 mM HEPES-KOH solution (pH 7.2). The membrane current was measured at room temperature.
# Effect of […] pinacidil was tested on whole-cell membrane currents of aorta smooth muscle cells held at −40 mV in high K^+ (140 mM) solution.
# anesthetized mice [4] = assay: Induction of coronary spasm by methylergometrine in vivo (ECG of anesthetized mice)
# Method: (§3) ECG recordings of conscious mice under unrestricted conditions were obtained using an implantable radio frequency transmitter (TA10ETA-F20) (DATA SCIENCES, St. Paul, Minn.), with subcutaneous leads placed in the conventional lead II position. ECGs of anesthetized mice and isolated hearts (Langendorff-perfused heart) were recorded with leads placed on the body surface (lead II) or epicardium.
# (§4) To link dysregulation of vascular tonus and sudden death in Kir6.1^−/− mice, an examination was tried to induce vasospasm using methylergometrine, an ergot alkaloid that stimulates serotonergic receptors and directly triggers the vasoconstriction of vascular smooth muscles (26).
# [5] = tested on: Langendorff-perfused hearts; assay: Induction of coronary spasm by methylergometrine in vitro (ECG of Langendorff-perfused hearts); parameters: species or system mouse; details: 20 mg
# Method: as §3, §4
# anesthetized mice [6] = assay: Measurement of aortic blood pressure (mean arterial pressure) in anesthetized mice; type: in vivo, mouse; details: Kir6.1+/+ mice; intravenous 0.3 mg/kg; within 5 minutes; urethane anesthesia
# Method: K^+ channel openers are known to lower arterial blood pressure by relaxing vascular smooth muscles by opening vascular KATP channels. The present inventors examined the vasodilation response to the K^+ channel opener pinacidil in Kir6.1^+/+ and Kir6.1^−/− mice, in vivo at first.
# Hemodynamic measurements were carried out according to the method described by, Suzuki, et al. (12). Changes of mean arterial pressure (MAP) after intravenous injection of 0.3 mg/kg pinacidil are indicated on the ordinate. The points show mean±SE of 6 animals for both groups.
# aortic rings = assay: Aortic contraction in isolated aortic preparation (tension of thoracic aortic rings precontracted by norepinephrine); type: cell-based, mouse; details: precontracted by 0.1 μM norepinephrine, cumulative pinacidil
# Method: The vasodilation response of thoracic aorta to the K^+ channel opener was further examined in vitro by measuring changes in the tension of aortic rings isolated from Kir6.1^+/+ and Kir6.1^−/− mice (FIG. 12). In the same manner as described by Suzuki et al. (13), mechanical function studies of isolated thoracic aorta were carried out. Briefly, the thoracic aorta without the endothelium was removed and cut into rings (4 mm in length). For isometric tension recording, the rings were mounted in a thermostatic organ bath. The bath was perfused with Krebs-Henseleit solution gassed with 95% O2/5% CO2. The aortic rings were precontracted by 0.1 μM norepinephrine, and pinacidil was added in a cumulative manner.
# [7] = anesthetized Kir6.1-/- mice, intravenous injection 20 mg
structure (smiles),measurement,setting,value
COc1ccc(Cl)cc1C(=O)NCCc1ccc(S(=O)(=O)NC(=O)NC2CCCCC2)cc1 [glibenclamide],block of pinacidil-induced outward current,ventricular cells [1]; 1 μM glibenclamide,blocked
same,reversal of pinacidil-induced APD90 shortening,"ventricular cells [2]; addition of 1 μM glibenclamide after 100 μM pinacidil, Kir6.1+/+ and Kir6.1-/- cells",reversed to control levels
same,block of pinacidil-elicited inward K+ currents,[3]; Kir6.1+/+ smooth muscle cells,blocked
CC[C@@H](CO)NC(=O)[C@@H]1C=C2c3cccc4[nH]cc(c34)C[C@H]2N(C)C1 [methylergometrine],significant changes in ECG or death (animals affected),"anesthetized mice [4]; Kir6.1+/+ mice, intravenous injection",none of 7
same,cardiac death concomitantly with changes in ECG (animals affected),"anesthetized mice [4]; Kir6.1-/- mice, intravenous injection 20 mg",5 Kir6.1^−/− mice out of 8
same,depression of ST segments on ECG (animals affected),anesthetized mice [4]; [7],1 animal out of 8
same,elevation of ST segments on ECG (animals affected),anesthetized mice [4]; [7],4 animals out of 8
same,elevation of the ST segment in isolated hearts (hearts affected),[5]; isolated hearts of Kir6.1+/+ mice,0/5
same,elevation of the ST segment in isolated hearts (hearts affected),[5]; isolated hearts of Kir6.1-/- mice,4/4
CC(N/C(=N\C#N)Nc1ccncc1)C(C)(C)C (centres unmarked) [pinacidil],"outward current (ATP-sensitive K+ current, IK,ATP)","ventricular cells [1]; pinacidil 1, 10 or 100 μM, 36.0° C",concentration-dependent increases of an outward current
same,APD at 90% repolarization level (APD90),"ventricular cells [2]; Kir6.1+/+ ventricular cells, after 100 μM pinacidil (before: 31.6±2.3 ms)",18.3 ± 2.2 ms
same,APD at 90% repolarization level (APD90),"ventricular cells [2]; Kir6.1-/- ventricular cells, after 100 μM pinacidil (before: 31.1±4.2 ms)",18.3 ± 3.9 ms
same,decrease in MAP,anesthetized mice [6],about 30 mmHg
same,vasodilating effect,aortic rings; aortic rings from Kir6.1+/+ mice,concentration-dependent vasodilating effect
same,vasodilating effect,aortic rings; aortic rings from Kir6.1-/- mice,din not elicit any KATP channel-mediated vasodilating effect
same,"density of pinacidil-induced, glibenclamide-sensitive inward K+ current",[3]; Kir6.1+/+ smooth muscle cells,9.53±2.32 pA/pF
same,"density of pinacidil-induced, glibenclamide-sensitive inward K+ current",[3]; Kir6.1-/- smooth muscle cells,0.13±0.07 pA/pF
